Data published in patent US20240158446A1, “CYCLIC COMPOUND HAVING SELECTIVE INHIBITORY ACTION ON KRAS OVER HRAS AND NRAS” (CHUGAI SEIYAKU KABUSHIKI KAISHA, priority 2021, published 2024).
Like-named read-outs stand apart in the source and are kept apart here.

Key:
[1] = biological target: GDP-bound HRAS wild-type protein (Homo sapiens, UniProt P01112); test: Binding to HRAS by surface plasmon resonance (SPR), Single Cycle Kinetics; details: for HRAS/KRAS (ratio of KD value for HRAS to KD value for KRAS): SPR, GDP-bound HRAS wild-type protein vs GDP-bound KRAS wild-type protein; for HRAS/KRAS (ratio of KD value with respect to GDP-bound HRAS wild-type protein to KD value with respect to KRAS): SPR KD ratio HRAS/KRAS, class symbols
[2] = biological target: GDP-bound NRAS wild-type protein (Homo sapiens, UniProt P01111); test: Binding to NRAS by surface plasmon resonance (SPR), Single Cycle Kinetics; details: for NRAS/KRAS (ratio of KD value for NRAS to KD value for KRAS): SPR, GDP-bound NRAS wild-type protein vs GDP-bound KRAS wild-type protein; for NRAS/KRAS (ratio of KD value with respect to GDP-bound NRAS wild-type protein to KD value with respect to KRAS): SPR KD ratio NRAS/KRAS, class symbols
[3] = tested on: human lung cancer strain NCI-H441;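 also: cell proliferation inhibition after four days measured by CellTiter-Glo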
[4] = biological target: GDP-bound KRAS wild-type protein (Homo sapiens, UniProt P01116); test: Binding to KRAS by surface plasmon resonance (SPR), Single Cycle Kinetics; details: GDP-bound KRAS wild-type protein, read-out: KRAS KD
[5] = SPR Single Cycle Kinetics, 1:1 binding model
[6] = SPR, Single Cycle Kinetics, 1:1 binding model

Chain of GDP-bound HRAS wild-type protein (P01112 whole entry): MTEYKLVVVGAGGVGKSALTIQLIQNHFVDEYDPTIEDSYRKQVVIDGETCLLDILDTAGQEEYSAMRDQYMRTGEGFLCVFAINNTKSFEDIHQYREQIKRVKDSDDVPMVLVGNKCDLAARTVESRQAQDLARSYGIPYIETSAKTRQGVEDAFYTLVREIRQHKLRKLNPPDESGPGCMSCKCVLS
Chain of GDP-bound NRAS wild-type protein (P01111 whole entry): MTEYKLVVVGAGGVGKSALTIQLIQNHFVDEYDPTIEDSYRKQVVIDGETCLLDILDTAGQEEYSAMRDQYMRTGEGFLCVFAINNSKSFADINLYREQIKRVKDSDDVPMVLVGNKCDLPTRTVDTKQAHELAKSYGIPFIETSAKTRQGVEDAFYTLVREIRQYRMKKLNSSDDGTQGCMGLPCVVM
Chain of GDP-bound KRAS wild-type protein (P01116 whole entry): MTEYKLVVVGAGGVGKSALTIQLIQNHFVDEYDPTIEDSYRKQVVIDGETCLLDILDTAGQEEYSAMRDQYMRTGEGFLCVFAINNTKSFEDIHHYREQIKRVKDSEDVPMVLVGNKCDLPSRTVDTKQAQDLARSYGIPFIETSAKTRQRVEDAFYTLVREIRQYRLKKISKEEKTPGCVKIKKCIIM

Structure (SMILES) | HRAS/KRAS (ratio of KD value for HRAS to KD value for KRAS) [1] | NRAS/KRAS (ratio of KD value for NRAS to KD value for KRAS) [2] | IC50 [3] | Kd ([4]; SPR, Single Cycle Kinetics) | HRAS/KRAS (ratio of KD value with respect to GDP-bound HRAS wild-type protein to KD value with respect to KRAS) [1] | NRAS/KRAS (ratio of KD value with respect to GDP-bound NRAS wild-type protein to KD value with respect to KRAS) [2] | Kd [4, 5] | HRAS/KRAS (ratio of KD value for HRAS to KD value for KRAS) ([1]; KD ratio class) | NRAS/KRAS (ratio of KD value for NRAS to KD value for KRAS) ([2]; KD ratio class) | Kd [4, 6]
CCO[C@@H]1C[C@H]2C(=O)NC3(CCC3)C(=O)N(C)[C@@H](C3CCCC3)C(=O)N(C)[C@H](C(=O)N3CCOCC3)CC(=O)N(C)[C@@H](CC(C)C)C(=O)N[C@@H]([C@@H](C)CC)C(=O)N(C)CC(=O)N(C)[C@H]3CCCCCN(C3=O)[C@@H](Cc3ccc4sccc4c3)C(=O)N(C)CC(=O)N[C@@H](CCc3cc(F)c(C(F)(F)F)c(F)c3)C(=O)N2C1 [PP0920] | B (a compound having 3 or more and less than 10 is denoted as B) | B (a compound having 3 or more and less than 10 is denoted as B) | 75.5 nM | 0.29 nM | – | – | – | – | – | –
CC[C@H](C)[C@@H]1NC(=O)[C@H](COC)N(C)C(=O)C[C@@H](C(=O)N(C)C)N(C)C(=O)[C@H](C2CCCCC2)N(C)C(=O)C2(CC(C)(C)C2)NC(=O)[C@@H]2C[C@@H](OC(C)C)CN2C(=O)[C@H](CCc2cc(F)c(C(F)(F)F)c(F)c2)NC(=O)CN(C)C(=O)[C@H](Cc2ccc(C(F)(F)F)cc2)N2CC/C=C\C[C@@H](C2=O)N(C)C(=O)CN(C)C1=O [PP2654] | – | – | 12.4 nM | – | A (a compound having 10 or more and less than 20 is denoted as A) | A (a compound having 10 or more and less than 20 is denoted as A) | 0.12 nM | – | – | –
CCCO[C@H](C)[C@@H]1NC(=O)[C@H](COCC)N(C)C(=O)C[C@@H](C(=O)N(C)CC)N(C)C(=O)[C@H](C2CCCC2)N(C)C(=O)C2(CC(C)(C)C2)NC(=O)[C@@H]2C[C@H](C)CN2C(=O)[C@H](CCc2ccc(C(F)(F)F)c(OC)c2)NC(=O)CN(C)C(=O)[C@H](Cc2ccc(C)cc2)N2CC/C=C\C[C@@H](C2=O)N(C)C(=O)CN(C)C1=O [PP2425] | A (a compound having 10 or more and less than 20 is denoted as A) | AA (a compound having 20 or more is denoted as AA) | 51.7 nM | 0.23 nM | – | – | – | – | – | –
CCO[C@@H]1C[C@H]2C(=O)NC3(CC(C)(C)C3)C(=O)N(C)[C@@H](C(CC)CC)C(=O)N(C)[C@H](C(=O)N(C)C)CC(=O)N(C)[C@@H](COC)C(=O)N[C@@H]([C@@H](C)CC)C(=O)N3CCC[C@H]3C(=O)N(C)[C@H]3C/C=C\CCN(C3=O)[C@@H](Cc3ccc(C(F)(F)F)cc3)C(=O)N(C)CC(=O)N[C@@H](CCc3ccc(Cl)c(Cl)c3)C(=O)N2C1 [PP2635] | – | – | 50.2 nM | – | A (a compound having 10 or more and less than 20 is denoted as A) | AA (a compound having 20 or more is denoted as AA) | 0.97 nM | – | – | –
CCC[C@H]1C(=O)N[C@@H]([C@@H](C)CC)C(=O)N(C)CC(=O)N(C)[C@H]2C/C=C\CCN(C2=O)[C@@H](Cc2ccc(C(F)(F)F)cc2)C(=O)N(C)CC(=O)N[C@@H](CCc2ccc(C(F)(F)F)c(OC)c2)C(=O)N2C[C@@H](C)C[C@H]2C(=O)N(C)C2(CCC2)C(=O)N(C)[C@@H](C2CCCC2)C(=O)N(C)[C@H](C(=O)N(C)C)CC(=O)N1C [PP2358] | B (a compound having 3 or more and less than 10 is denoted as B) | A (a compound having 10 or more and less than 20 is denoted as A) | 2.5 nM | 0.02 nM | – | – | – | – | – | –
CCO[C@@H]1C[C@H]2C(=O)NC3(CCC3)C(=O)N(C)[C@@H](C3CCCC3)C(=O)N(C)[C@H](C(=O)N(C)C)CC(=O)N(C)[C@@H](CC(C)C)C(=O)N[C@@H]([C@@H](C)CC)C(=O)N(C)CC(=O)N(C)[C@H]3C/C=C\CCN(C3=O)[C@@H](CC3CCCCC3)C(=O)N(C)CC(=O)N[C@@H](CCc3cc(F)c(C(F)(F)F)c(F)c3)C(=O)N2C1 [PP1467, (2S,8S,12R,14S,20S,23S,27S,30S,36S,38Z)-2-(cyclohexylmethyl)-20-cyclopentyl-8-[2-[3,5-difluoro-4-(trifluoromethyl)phenyl]ethyl]-12-ethoxy-27-isobutyl-N,N,4,19,22,26,32,35-octamethyl-30-[(1S)-1-methylpropyl]-3,6,9,15,18,21,25,28,31,34,42-undecaoxo-spiro[1,4,7,10,16,19,22,26,29,32,35-undecazatricyclo[34.5.1.0^10,14]dotetracont-38-ene-17,1′-cyclobutane]-23-carboxamide] | – | – | 11.2 nM | – | – | – | – | A (a compound having 10 or more and less than 20 is denoted as A) | A (a compound having 10 or more and less than 20 is denoted as A) | 0.12 nM
CCC[C@H]1C(=O)N[C@@H]([C@@H](C)CC)C(=O)N(C2CC2)CC(=O)N(C)[C@H]2C/C=C\CCN(C2=O)[C@@H](CC2CCCCC2)C(=O)N(C)CC(=O)N[C@@H](CCc2ccc(C(F)(F)F)c(OC)c2)C(=O)N2C[C@@H](C)C[C@H]2C(=O)N(C)C2(CCC2)C(=O)N(C)[C@@H](C2CCCC2)C(=O)N(C)[C@H](C(=O)N(C)C)CC(=O)N1C [PP2372] | B (a compound having 3 or more and less than 10 is denoted as B) | A (a compound having 10 or more and less than 20 is denoted as A) | 3.3 nM | 0.79 nM | – | – | – | – | – | –
CCO[C@@H]1C[C@H]2C(=O)NC3(CCC3)C(=O)N(C)[C@@H](C(CC)CC)C(=O)N(C)[C@H](C(=O)N(C)C)CC(=O)N(C)[C@@H](CC)C(=O)N[C@@H]([C@@H](C)CC)C(=O)N(C)CC(=O)N(C)[C@H]3C/C=C\CCN(C3=O)[C@@H](Cc3ccc(C(F)(F)F)cc3)C(=O)N(C)CC(=O)N[C@@H](CCc3ccc(Cl)c(Cl)c3)C(=O)N2C1 [PP1215] | – | – | 33.4 nM | – | – | – | – | A (a compound having 10 or more and less than 20 is denoted as A) | AA (a compound having 20 or more is denoted as AA) | 0.42 nM
CCC[C@H]1C(=O)N[C@@H]([C@@H](C)CC)C(=O)N(C2CC2)CC(=O)N(C)[C@H]2C/C=C\CCN(C2=O)[C@@H](CC2CCC(F)(F)CC2)C(=O)N(C)CC(=O)N[C@@H](CCc2ccc(Cl)c(Cl)c2)C(=O)N2C[C@H](OC(C)C)C[C@H]2C(=O)NC2(CC(C)(C)C2)C(=O)N(C)[C@@H](C2CCCC2)C(=O)N(C)[C@H](C(=O)N(C)C)CC(=O)N1C [PP2521] | A (a compound having 10 or more and less than 20 is denoted as A) | A (a compound having 10 or more and less than 20 is denoted as A) | 129 nM | 2.8 nM | – | – | – | – | – | –
CC[C@H](C)[C@@H]1NC(=O)[C@H](CC)N(C)C(=O)C[C@@H](C(=O)N(C)C)N(C)C(=O)[C@H](C2CCCC2)N(C)C(=O)C2(CCCC2)NC(=O)[C@@H]2CCCN2C(=O)[C@H](CCc2ccc(C(F)(F)F)c(Cl)c2)NC(=O)CN(C)C(=O)[C@H](Cc2ccc(C(F)(F)F)cc2)N2C[C@H](C)CC[C@@H](C2=O)N(C)C(=O)CN(C)C1=O [PP1336] | – | – | 10.8 nM | – | – | – | – | B (a compound having 3 or more and less than 10 is denoted as B) | B (a compound having 3 or more and less than 10 is denoted as B) | 0.074 nM
CCO[C@@H]1C[C@H]2C(=O)NC3(CC(C)(C)C3)C(=O)N(C)[C@@H](C(CC)CC)C(=O)N(C)[C@H](C(=O)N(C)C)CC(=O)N(C)[C@@H](COC)C(=O)N[C@@H]([C@@H](C)CC)C(=O)N(C)CC(=O)N(C)[C@H]3C/C=C\CCN(C3=O)[C@@H](CC3CCCCC3)C(=O)N(C)CC(=O)N[C@@H](CCc3cc(F)c(C(F)(F)F)c(F)c3)C(=O)N2C1 [PP2456] | A (a compound having 10 or more and less than 20 is denoted as A) | A (a compound having 10 or more and less than 20 is denoted as A) | 18.8 nM | 1.1 nM | – | – | – | – | – | –
CCO[C@@H]1C[C@H]2C(=O)NC3(CCC3)C(=O)N(C)[C@@H](C3CCCC3)C(=O)N(C)[C@H](C(=O)N(C)C)CC(=O)N(C)[C@@H](CCOC)C(=O)N[C@@H]([C@@H](C)CC)C(=O)N(C)CC(=O)N(C)[C@H]3CCCCCN(C3=O)[C@@H](Cc3ccc(F)cc3)C(=O)N(C)CC(=O)N[C@@H](CCc3cc(F)c(C(F)(F)F)c(F)c3)C(=O)N2C1 [PP1194] | B (a compound having 3 or more and less than 10 is denoted as B) | B (a compound having 3 or more and less than 10 is denoted as B) | 25.3 nM | 0.068 nM | – | – | – | – | – | –
